Experimental data published in PubChem BioAssay AID1996.
In brackets after ≈: the same amount, converted by molar mass.

Details: buffer; pH 7.4; 200.0 µM

Row | SMILES | solubility kinetic [µg/mL]
1 | O=C(Nc1ccc(C(=O)Nc2ccccc2Cl)cc1)c1cccnc1 | 2.3 (≈ 6.54 µM)
2 | CC(C)c1c(O)nc(SCCOc2ccc(Cl)cc2)[nH]c1=O | 44.7 (≈ 131 µM)
3 | CC(C)(C)OC(=O)N1CCC[C@H]1C(=O)Nc1ccc(C#N)cc1 | 40.7 (≈ 129 µM)
4 | S=C(CN1CCCC1=S)NCCc1ccccc1 | > 41.8
5 | O=C(O)c1ccccc1C(=O)N(c1ccccc1)c1ccccc1 | 46.8 (≈ 147 µM)
6 | COc1cccc(C=Nc2ccc(N3CCOCC3)cc2)c1O | 33.7 (≈ 108 µM)
7 | CCOCCn1c(CC)nc2ccccc21 | > 32.7
8 | Cc1cc(C)cc(C(=O)N2CCC3(CC2)NCCc2[nH]cnc23)c1 | > 48.7
9 | COc1ccc(Nc2nc(Cl)c(C=O)s2)cc1 | 11.1 (≈ 41.3 µM)
10 | COC(=O)C(Cc1ccc(O)cc1)NC(=O)CCNC(=O)c1ccco1 (configuration not stated) | > 54.1
11 | O=C(O)c1ccc(Cl)c(S(=O)(=O)Nc2ccc(S(=O)(=O)N3CCCC3)cc2)c1 | > 66.7
12 | Cn1c(=O)c2c([nH]c(=S)n2Cc2ccc(Cl)cc2)n(C)c1=O | > 50.5
13 | CC(NC(=O)C1=CC=CN2CCS(=O)(=O)N=C12)c1ccc(Cl)c(Cl)c1 (configuration not stated) | > 60
14 | COc1ccc(S(=O)(=O)N2CCCCCC2)cc1NC(=O)CN1C(=O)CNC1=O | > 63.7
15 | COc1ccc(CC(=O)Nc2nccs2)cc1S(=O)(=O)N1CCOCC1 | > 59.6
16 | Cc1ccccc1C(=O)NC(CC(C)C)C(=O)NCC(C)(C)N1CCOCC1 (configuration not stated) | > 58.4
17 | CCOc1ccc(N=C2NC(=O)CS2)cc1 | > 35.4
18 | NC(=O)c1ccsc1NC(=O)COC(=O)c1ccccn1 | > 45.8
19 | Cc1ccc2nsnc2c1S(=O)(=O)N1CCN(C)CC1 | 45.5 (≈ 146 µM)
20 | CC(OC(=O)c1ccccc1O)C(=O)Nc1cccc(Cl)c1 (configuration not stated) | 2 (≈ 6.26 µM)
21 | O=C(NCc1ccccc1Cl)c1ccc2c(c1)OCO2 | > 43.5

Row | SMILES | solubility kinetic [µg/mL]
22 | Clc1ccc(N=c2ssnc2Cl)nc1 | 1 (≈ 3.79 µM)
23 | Cc1ccc(S(=O)(=O)NCCN2CCOCC2)s1 | > 43.6
24 | Cc1ccc(-n2nc3c(c2NC(=O)C(C)C)CS(=O)(=O)C3)c(C)c1 | > 52.1
25 | Cc1onc(-c2ccccc2Cl)c1C(=O)N1CCC(C(N)=O)CC1 | 50.7 (≈ 146 µM)
26 | CCOc1ccc(NC(=O)c2nc(SCC)ncc2Cl)cc1 | < 0.2
27 | CC(C(=O)NCc1ccccc1)N1CCN(c2ccc(F)cc2)CC1 (configuration not stated) | > 51.2
28 | Cc1ccccc1C(=O)Nc1ccccc1C(=O)NC1CC1 | > 44.2
29 | O=C(O)CNS(=O)(=O)c1ccc2[nH]c(=O)c(=O)[nH]c2c1 | > 44.9
30 | CSc1ncccc1C(=O)OCC(=O)Nc1ccc2c(c1)OCO2 | 2.7 (≈ 7.8 µM)
31 | COc1ccc(NC(=O)COC(=O)Cc2c[nH]c3ccccc23)cc1Cl | 4.1 (≈ 11 µM)
32 | Cc1ccc(C23CCC(=O)N2C(C(=O)O)CS3)c(C)c1 (configuration not stated) | > 43.7
33 | CC(=O)c1c(-c2ccccc2)c2ccccc2[nH]c1=O | 15.1 (≈ 57.3 µM)
34 | CCOc1ccc(S(=O)(=O)N2CC(=O)Nc3ccccc32)cc1 | 10.7 (≈ 32.2 µM)
35 | CN1C(=O)N(C)C(=O)C2(Cc3cc([N+](=O)[O-])ccc3N(C)C2)C1=O | 5.3 (≈ 15.9 µM)
36 | CCN(CC)C(=O)CSc1nc(-c2ccccc2)ccc1C#N | 0.6 (≈ 1.84 µM)
37 | COc1ccccc1CNS(=O)(=O)c1cc(C(=O)NCC2CCCO2)c(Cl)cc1Cl (configuration not stated) | > 71
38 | Cc1ccc(N2CCN(C(=S)Nc3ccccc3)CC2)cc1 | 1 (≈ 3.21 µM)
39 | c1cc2c(cc1CN1CCNCC1)OCO2 | 31.8 (≈ 144 µM)
40 | Cc1ccc2c(c1)C(c1ccccc1)=NCC(=O)N2 | > 37.5
41 | COc1ccc(NC(=O)Nc2c[nH]c(=O)[nH]c2=O)cc1 | 10 (≈ 36.2 µM)
42 | Cc1cc(NC(=O)c2c(-c3c(F)cccc3Cl)noc2C)no1 | > 50.4
